Assay results: patent US20070117864A1, “Composition for preventing and treating hepatoma” (Tokyo University of Agr. & Tech. TLO Co., Ltd., priority 2003, published 2007)
Marks after values point to notes of the source that are not given here.

Columns and labels:
[1] = food intake, body weight gain and liver weight in hepatoma-bearing rats; format: in vivo, rat; settings: for Body weight gain: mean ± SEM of 11 rats
Experimental: Male Donryu rats of four weeks old were purchased from NRC Haruna, Gumma, Japan, and were preliminarily fed for 6 days in quintuple cages in a room with a controlled environment with light period of 8:00 to 20:00, room temperature of 22±1° C., and relative humidity of 60±5%. For the first 3 days, the animals were fed ad libitum with a stock pellet diet (CE-2; CLEA Japan, Tokyo), and for the next 3 days, they were fed a basal diet containing 20% milk casein (20C) (Table 1) ad libitum together with tap water in a glass container. Following the completion of this preparatory raising, the rats were divided into three groups (11 animals per group) with equal average body weights of the respective groups were equal, and 1.0×10^7 of AH109A cells suspended in PBS (−) were transplanted in the back of all the rats. From the time immediately after transplantation, in the respective experimental groups, the animals were fed the experimental diets shown in Table 2. During the experimental period, the body weight, food intake and solid tumor size (sum of length, width and height) were measured everyday. On the day that the animals were killed, animals were deprived of experimental diets at 9:00, but freely given water until they were killed 4 hours later. Blood was collected from carotid, and the liver and solid tumors were excised. The collected blood was allowed to stand for approximately 2 hours at room temperature, and then centrifuged for 10 minutes at 3000 rpm (1750×g), 4° C., to obtain serum. This blood serum was frozen and stored at −20° C. The livers and solid tumors were washed with physiological saline, blotted on filter paper, and weighed. Furthermore, feces from the 19th to 21st days after transplantation were collected, and these feces were frozen and stored at −20° C. for the measurement of the amounts of steroids excreted from the body.

M-cells = test: proliferative activity of M-cells by [3H]thymidine incorporation; format: cell-based, rat; settings: in vitro
Experimental: Male Donryu rats (4 to 10 weeks of age) were anesthetized by intraperitoneal injection of Nembutal at the dose of 5 mg/0.1 ml/100 g of body weight, and blood was collected by cutting the carotid artery. Subsequently, following disinfection using a hibiten solution, the abdomens of the animals were opened in a clean bench, and the mesenteric membranes were removed one by one and washed with PBS (−), and were then recovered in another 15 ml of PBS (−). The same amount of 0.5% trypsin in PBS (−) was added, and the preparation was agitated for 20 minutes at 37° C. Subsequently, 5 ml of a 10% CS/MEM was added, to stop the trypsin reaction. Then, the preparation was subjected to pipetting by means of a Komagome Pipette, and filtrated using a metal mesh. The filtrate was centrifuged for 10 minutes at 1500 rpm (440×g), 4° C., and was washed with PBS (−). The collected cells were inoculated into a 6 cm dish with an attached grid (2 mm square) at the density of 1.5 to 2.0×10^5 cells. The medium of 10% CS/MEM was used, and the medium was changed on the day following collection and every other day thereafter. […] Subsequently, the proliferation activity was measured as above-mentioned in (3).

AH109A cells = test: cell cycle analysis of hepatoma cells by PI staining and flow cytometry; format: cell-based, rat
Experimental: The effects of 6.25 μM and 12.5 μM ENL on the cell cycle of AH109A cells were analyzed. The AH109A cells were inoculated into a 6-well plate (NUNC) at the density of 2.5×10^5 cells per well, and the cells were cultured for 0, 24 and 48 hours at 37° C. in a CO2 incubator. The AH109A cells cultured under the respective treatment conditions were recovered in 2-ml sampling tubes (Nippon Genetex, Tokyo); these cells were centrifuged for 5 minutes at 1000 rpm (190×g), 4° C., and then washed twice with PBS (−). Subsequently, 300 μl of a PI solution (1 mg propidium iodide (SIGMA)/20 ml 0.1% Triton X-100, 0.1% sodium citrate (Wako Pure Chemical Industries)) was added, and the preparation was dyed by allowing the preparation to kept quietly on ice for 30 minutes with the light blocked. The cell cycle was analyzed with a flow cytometer (EPICS ELITE ESP; Beckman-Coulter, Hialeah, Fla., USA).

[2] = ENL treatment for 24 hours, versus 0 μM control

Compound: O=C1OCC(Cc2cccc(O)c2)C1Cc1cccc(O)c1 (stereo not shown) [Enterolactone, enterolactone]
- body weight ([1]; 100 ppm ENL ingestion group versus control): significant increase
- Body weight gain ([1]; diet 10 ppm): 158 ± 8^a g/21 days
- Body weight gain ([1]; diet 100 ppm): 171 ± 4^b g/21 days
- proliferation of M-cells (normal cells) (M-cells): inhibit the proliferation of M-cells in a dose-dependent manner
- effect on the cell cycle (AH109A cells; ENL treatment for 0 hours, various concentrations): no effect
- proportion of the G1 phase (AH109A cells; [2]): increase
- proportion of the S phase (AH109A cells; [2]): decrease
